Test results from ChEMBL document CHEMBL5252612, “A novel selective estrogen receptor degrader induces cell cycle arrest in breast cancer via ERα degradation and the autophagy-lysosome pathway” (Bioorg Med Chem, 2023).
Activity calls are given as the source filed them. No cut-off for these calls is given here.

How the values were obtained:
[1] = system: T47D; test: Anticancer activity against ER-alpha positive human T47D cells assessed as reduction in cell viability measured after 48 hrs by CCK8 assay; assay type: functional, cell-based
[2] = system: MCF7; test: Anticancer activity against ER-alpha positive human MCF7 cells assessed as reduction in cell viability measured after 48 hrs by CCK8 assay; assay type: functional, cell-based
[3] = system: T47D; test: Inhibition of colony formation in human T47D cells at 1 to 5 uM incubated for 14 days by crystal violet staining based analysis; assay type: functional, cell-based; details: dose 1-5 µM, time 14.0 day
[4] = system: T47D; test: Induction of cell cycle arrest in human T47D cells assessed as proportion of cells at S phase at 5 uM incubated for 24 hrs by flow cytometry (reference value: 15.3%); assay type: functional
[5] = system: MCF7; test: Induction of cell cycle arrest in human MCF7 cells assessed as proportion of cells at G1 phase at 1 uM incubated for 24 hrs by flow cytometry (reference value: 46.3%); assay type: functional
[6] = system: MCF7; test: Induction of cell cycle arrest in human MCF7 cells assessed as proportion of cells at G1 phase at 5 uM incubated for 24 hrs by flow cytometry (reference value: 46.3%); assay type: functional
[7] = system: MCF7; test: Induction of cell cycle arrest in human MCF7 cells assessed as proportion of cells at S phase at 5 uM incubated for 24 hrs by flow cytometry (reference value: 27.6%); assay type: functional
[8] = system: T47D; test: Induction of apoptosis and necrosis in human T47D cells assessed as live cells at 20 uM incubated for 48 hrs by AnnexinV-FITC/PI staining based flow cytometry (reference value: 96.26%); assay type: functional
[9] = Toxicity in BALB/c nude mouse xenografted with human MCF7 cells assessed as liver cell morphological changes at 2 to 4 mg/kg, ip administered every other day by Hematoxylin and eosin staining based analysis; assay type: organism-based; details: in vivo, dose 2-4 mg/kg
[10] = molecular target: T1, Estrogen receptor (Homo sapiens) (UniProt P03372); test: Induction of ER-alpha degradation in human T47D cells assessed as reduction in ER-alpha stability at 10 uM incubated for 3 to 9 hrs in presence of protein synthesis inhibitor, CHX by CHX chase assay based western blot analysis; assay type: cell-based; details: time 3-9 hrs
T1 sequence (whole entry): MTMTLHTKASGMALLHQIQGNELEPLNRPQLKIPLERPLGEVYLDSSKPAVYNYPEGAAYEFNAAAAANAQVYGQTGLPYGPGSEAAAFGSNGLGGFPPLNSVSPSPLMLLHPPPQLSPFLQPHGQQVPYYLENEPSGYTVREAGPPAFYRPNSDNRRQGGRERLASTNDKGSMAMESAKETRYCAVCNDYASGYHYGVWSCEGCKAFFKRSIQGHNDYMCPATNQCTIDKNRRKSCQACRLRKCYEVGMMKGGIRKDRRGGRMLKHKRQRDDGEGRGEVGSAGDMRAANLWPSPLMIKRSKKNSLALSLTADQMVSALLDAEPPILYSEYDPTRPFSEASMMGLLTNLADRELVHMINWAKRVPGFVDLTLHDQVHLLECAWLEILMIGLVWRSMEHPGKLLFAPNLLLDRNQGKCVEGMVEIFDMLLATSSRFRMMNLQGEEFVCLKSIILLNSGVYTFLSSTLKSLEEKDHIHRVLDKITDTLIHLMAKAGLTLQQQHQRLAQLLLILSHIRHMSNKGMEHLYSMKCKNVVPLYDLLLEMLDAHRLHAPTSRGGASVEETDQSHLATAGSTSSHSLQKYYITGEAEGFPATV

[11] = system: T47D; test: Downregulation of ER-alpha mRNA expression in human T47D cells by RT-qPCR analysis; assay type: functional, cell-based
[12] = system: T47D; test: Induction of autophagy in human T47D cells assessed as decrease in p62 protein expression at 5 to 10 uM incubated for 24 hrs by western blot analysis; assay type: functional, cell-based; details: dose 5-10 µM
[13] = system: T47D; test: Induction of autophagy in human T47D cells assessed as increase in LC3 protein expression at 5 to 10 uM incubated for 24 hrs in presence of chloroquine by western blot analysis; assay type: functional, cell-based; details: dose 5-10 µM
[14] = system: T47D; test: Induction of autophagy in human T47D cells assessed as upregulation of CTSD protein expression at 10 uM incubated for 24 hrs by western blot analysis; assay type: functional, cell-based
[15] = system: T47D; test: Induction of cell cycle arrest in human T47D cells assessed as proportion of cells at G1 phase at 10 uM incubated for 24 hrs by flow cytometry (reference value: 52.6%); assay type: functional
[16] = system: T47D; test: Induction of cell cycle arrest in human T47D cells assessed as proportion of cells at S phase at 10 uM incubated for 24 hrs by flow cytometry (reference value: 27.7%); assay type: functional
[17] = system: T47D; test: Induction of cell cycle arrest in human T47D cells assessed as proportion of cells at G2 phase at 10 uM incubated for 24 hrs in presence of autophagy inhibitor, 3-MA by flow cytometry (reference value: 18.2%); assay type: functional
[18] = Downregulation of MYC expression in human T47D cells at 10 uM incubated for 12 hrs by RNA-seq analysis; assay type: functional
[19] = molecular target: T1, Estrogen receptor (Homo sapiens); test: Induction of ER-alpha degradation in human T47D cells overexpressing ER-alpha assessed as decrease in MYC protein expression at 10 uM incubated for 24 hrs by western blot analysis; assay type: cell-based
[20] = system: T47D; test: Induction of cell cycle arrest in human T47D cells transfected with empty vector assessed as proportion of cells at S phase at 10 uM incubated for 24 hrs by flow cytometry (reference value: 25.9%); assay type: functional
[21] = system: T47D; test: Induction of cell cycle arrest in human T47D cells overexpressing MYC assessed as proportion of cells at G2 phase at 10 uM incubated for 24 hrs by flow cytometry (reference value: 48.5%); assay type: functional
[22] = system: LCC2; test: Anticancer activity against ER-alpha positive human LCC2 cells assessed as reduction in cell viability at 20 uM measured after 48 hrs by CCK8 assay; assay type: functional, cell-based
[23] = molecular target: T1, Estrogen receptor (Homo sapiens); test: Induction of ER-alpha degradation in tamoxifen-resistant human LCC2 cells assessed as decrease in ER-alpha protein expression at 10 uM by western blot analysis; assay type: cell-based
[24] = Induction of cell cycle arrest in tamoxifen-resistant human LCC2 cells assessed as proportion of cells at G2 phase at 1 uM by flow cytometry (reference value: 23.7%); assay type: functional
[25] = Induction of cell cycle arrest in tamoxifen-resistant human LCC2 cells assessed as proportion of cells at G1 phase at 5 uM by flow cytometry (reference value: 47.4%); assay type: functional
[26] = Induction of cell cycle arrest in tamoxifen-resistant human LCC2 cells assessed as proportion of cells at G2 phase at 5 uM by flow cytometry (reference value: 23.7%); assay type: functional
[27] = Induction of cell cycle arrest in tamoxifen-resistant human LCC2 cells assessed as proportion of cells at S phase at 10 uM by flow cytometry (reference value: 28.4%); assay type: functional
[28] = system: T47D; test: Induction of autophagy in human T47D cells overexpressing ESR1 assessed as increase in LC3 protein expression by western blot analysis; assay type: functional, cell-based
[29] = molecular target: T1, Estrogen receptor (Homo sapiens); test: Induction of ER-alpha degradation in human T47D cells assessed as decrease in ER-alpha protein expression in presence of autophagy inhibitor, 3-MA of by western blot analysis; assay type: cell-based

Question: For COc1ccc(N(CC(F)(F)F)S(=O)(=O)C2CC3OC2C(c2ccc(OCCN4CCCC4)cc2)=C3c2ccc(O)cc2)cc1 (stereo unspecified), which Activity [1] is on record?
Answer: Dose-Dependent Effect

Question: And the IC50 [1]?
Answer: 18.1 µM

Question: And the Activity [2]?
Answer: Dose-Dependent Effect

Question: And the IC50 ([2]; MCF7, 48 h)?
Answer: 16.4 µM

Question: What about the inhibition [3] of the same compound?
Answer: Active

Question: What about the Activity [4] of the same compound?
Answer: 9.6%

Question: What about the Activity [5] of the same compound?
Answer: 63.7%

Question: What about the Activity [6] of the same compound?
Answer: 65.1%

Question: What about the Activity [7] of the same compound?
Answer: 15%

Question: And the Activity [8]?
Answer: 78.57%

Question: What about the Activity [9] of the same compound?
Answer: Non-Toxic

Question: And the Activity [10]?
Answer: Active

Question: And the inhibition [11]?
Answer: Active

Question: And the Activity [12]?
Answer: Active

Question: And the Activity [13]?
Answer: Active

Question: And the Activity [14]?
Answer: Active

Question: What about the Activity [15] of the same compound?
Answer: 71.6%

Question: What about the Activity [16] of the same compound?
Answer: 10.2%

Question: And the Activity [17]?
Answer: 19.3%

Question: And the “fold change (FC)” value [18]?
Answer: -1.037

Question: What about the Activity [19] of the same compound?
Answer: inactive

Question: And the Activity [20]?
Answer: 22.8%

Question: And the Activity [21]?
Answer: 52.5%

Question: And the Activity [22]?
Answer: Active

Question: And the Activity [23]?
Answer: Active

Question: And the Activity [24]?
Answer: 16.6%

Question: And the Activity [25]?
Answer: 71.9%

Question: And the Activity [26]?
Answer: 14.5%

Question: And the Activity [27]?
Answer: 13.4%

Question: What about the Activity [28] of the same compound?
Answer: Active

Question: And the Activity [29]?
Answer: Active
